Consider 13 compounds from PMC9911797, “Novel TLR7/8 agonists promote activation of HIV-1 latent reservoirs and human T and NK cells” (Frontiers in Microbiology, 2023).

Data set [1] has as its target T1, hTLR7 (Homo sapiens, UniProt Q9NYK1).
T1 construct: host or cells: HEK-Blue hTLR7 (HEK293-derived)
T1 sequence (Q9NYK1 27-1049): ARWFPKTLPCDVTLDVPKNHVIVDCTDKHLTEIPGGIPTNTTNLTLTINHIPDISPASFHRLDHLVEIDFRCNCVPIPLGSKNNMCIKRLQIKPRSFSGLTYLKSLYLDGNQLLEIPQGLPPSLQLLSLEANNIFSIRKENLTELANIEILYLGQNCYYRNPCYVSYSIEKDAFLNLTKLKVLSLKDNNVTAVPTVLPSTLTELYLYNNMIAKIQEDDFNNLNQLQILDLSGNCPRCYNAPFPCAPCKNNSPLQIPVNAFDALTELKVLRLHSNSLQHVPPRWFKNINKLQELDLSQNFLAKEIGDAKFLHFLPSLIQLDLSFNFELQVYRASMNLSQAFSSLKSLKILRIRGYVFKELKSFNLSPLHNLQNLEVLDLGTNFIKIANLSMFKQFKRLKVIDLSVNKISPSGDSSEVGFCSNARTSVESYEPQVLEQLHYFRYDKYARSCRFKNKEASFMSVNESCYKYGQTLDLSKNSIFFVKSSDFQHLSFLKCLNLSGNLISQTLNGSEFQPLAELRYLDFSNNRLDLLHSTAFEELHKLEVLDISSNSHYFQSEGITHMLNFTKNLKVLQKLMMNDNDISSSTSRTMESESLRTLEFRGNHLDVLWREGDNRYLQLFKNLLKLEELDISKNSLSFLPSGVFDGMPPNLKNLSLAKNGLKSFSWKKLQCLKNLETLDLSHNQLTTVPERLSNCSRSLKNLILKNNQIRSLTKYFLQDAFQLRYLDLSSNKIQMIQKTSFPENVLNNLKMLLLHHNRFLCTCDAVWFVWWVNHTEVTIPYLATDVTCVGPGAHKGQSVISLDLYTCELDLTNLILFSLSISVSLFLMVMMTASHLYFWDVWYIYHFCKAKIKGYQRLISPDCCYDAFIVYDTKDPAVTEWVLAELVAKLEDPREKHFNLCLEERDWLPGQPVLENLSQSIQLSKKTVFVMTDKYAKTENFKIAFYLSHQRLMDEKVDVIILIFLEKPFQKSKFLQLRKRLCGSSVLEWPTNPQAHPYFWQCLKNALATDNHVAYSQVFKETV
The data set is described as follows: HEK-Blue hTLR7 SEAP reporter assay. Type of data set: cell-based. The conditions noted are these: HEK-Blue hTLR7 cells, SEAP in supernatant. Here is the method:
(§1) Starting with the lead compound, 76 pyrido [3,2-d] pyrimidine derivatives were synthesized and optimized through structural modification from the deep hydrophobic region to the solvent-exposed region. Seventy-six compounds were evaluated for their in vitro activity using HEK-Blue hTLR7 or hTLR8 reporter cells, stably expressing the human TLR7 or TLR8 and an NF-κB/AP1-inducible SEAP (secreted embryonic alkaline phosphatase reporter gene).
(§2) Add 20 μl various concentrations of TLR agonists (10 dilutions) and in a 96-well plate. Then HEK-Blue hTLR7 and hTLR8 cells were suspended to 4 × 10^5 cells/ml in HEK-Blue Detection (InvivoGen) medium and added 180 μl per well. The plates were incubated at 37°C in 5% CO2 for 12 ~ 16 h. Stimulation with a hTLR7or hTLR8 ligand activates NF-κB to induce the production of secreted embryonic alkaline phosphatase (SEAP) in the culture supernatant. SEAP could be measured at OD630nm on an ELISA plate reader.

Data set [2] deals with T2, hTLR8 (Homo sapiens, UniProt Q9NR97).
T2 construct: host or cells: HEK-Blue hTLR8 (HEK293-derived)
T2 sequence (Q9NR97 27-1041): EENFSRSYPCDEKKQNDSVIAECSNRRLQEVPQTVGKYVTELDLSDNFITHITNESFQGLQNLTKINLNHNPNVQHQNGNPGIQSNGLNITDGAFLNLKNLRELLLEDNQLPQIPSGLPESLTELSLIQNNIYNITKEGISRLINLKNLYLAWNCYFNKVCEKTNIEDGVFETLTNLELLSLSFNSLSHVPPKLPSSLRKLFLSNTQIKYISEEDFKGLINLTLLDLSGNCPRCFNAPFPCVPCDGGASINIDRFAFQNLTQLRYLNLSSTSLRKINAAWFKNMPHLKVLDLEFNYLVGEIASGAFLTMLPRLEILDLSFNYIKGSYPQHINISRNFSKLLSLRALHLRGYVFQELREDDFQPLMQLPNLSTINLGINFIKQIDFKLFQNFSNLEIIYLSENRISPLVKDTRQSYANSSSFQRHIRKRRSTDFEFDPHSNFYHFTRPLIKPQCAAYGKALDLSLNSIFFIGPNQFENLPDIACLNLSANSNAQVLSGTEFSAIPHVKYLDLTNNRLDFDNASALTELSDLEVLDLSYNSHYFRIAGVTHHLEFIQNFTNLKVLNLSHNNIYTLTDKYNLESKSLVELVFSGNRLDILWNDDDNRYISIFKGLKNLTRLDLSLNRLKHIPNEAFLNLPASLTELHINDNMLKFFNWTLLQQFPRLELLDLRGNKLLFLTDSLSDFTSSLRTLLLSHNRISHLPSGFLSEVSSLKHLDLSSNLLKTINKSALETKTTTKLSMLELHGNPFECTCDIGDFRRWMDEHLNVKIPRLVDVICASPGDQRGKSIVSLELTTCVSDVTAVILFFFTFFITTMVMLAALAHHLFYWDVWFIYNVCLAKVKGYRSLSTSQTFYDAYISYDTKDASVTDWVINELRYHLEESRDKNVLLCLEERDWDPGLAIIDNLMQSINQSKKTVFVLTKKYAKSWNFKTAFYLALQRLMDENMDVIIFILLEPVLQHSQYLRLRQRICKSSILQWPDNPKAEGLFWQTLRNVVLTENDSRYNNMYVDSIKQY
Description: HEK-Blue hTLR8 SEAP reporter assay. It is filed as cell-based. To be noted: HEK-Blue hTLR8 cells, SEAP in supernatant. On the procedure: as §1, §2
For orientation: A reporter such as luciferase makes a cellular process visible.

For data set [3], the system named is J-LAT cells co-cultured with MDDCs. The data set is described as follows: J-LAT and MDDC co-culture assay (GFP+ cells and TNF-α). The conditions noted are these: 1 μM, 48 h.
Data set [4] has as its system PBMCs from HIV-1 well-suppressed patients. Description: Latent HIV-1 activation in PBMCs of well-suppressed patients (HIV-1 RNA copies in supernatant, RT-qPCR). Type of data set: cell-based, human. To be noted: for HIV-1 RNA copies in the supernatant and TNF-α concentration: PBMCs from seven well-suppressed patients, IgG1-control antibody vs anti-TNF-α; for HIV-1 RNA copies in the supernatant: patient PBMCs (n = 6), 96 h at 37°C. From the text:
To study the potential of novel TLR7/8 in activating latent HIV-1 reservoir, TLR7/8 dual agonists D018 and C142 and TLR8-specific agonist B-130a were mixed with PBMCs from six well-suppressed patients whose viral load in the plasma was less than 50 copies/ml, and CD4 counts were more than […] for more than 6 years.
TLR7/8 agonists activated PBMCs from seven well-suppressed patients with the addition of anti-TNF-α monoclonal antibody or IgG1-control monoclonal antibody, respectively. D018, B-130a, and the positive control PMA + ION increased the levels of HIV-1 RNA copies in the supernatant and the concentration of TNF-α concomitantly.
To measure the HIV viral load, viral RNA from supernatants was extracted by MagaBio Plus Viral DNA / RNA Purification Kit (BIOER). The reverse-transcription and analysis of RNA copies were performed using the HIV-1 Real-time PCR detection kit (BIOER).
In general terms: In qPCR the cycle at which signal appears reflects the starting amount.

Data set [5] has as its system U1 monocytic cell line (latent HIV-1). The data set is described as follows: HIV-1 p24 production in latently infected U1 cells (ELISA). To be noted: 1 μM, TLR8- or MyD88-shRNA U1 vs sham-knockdown.
The subject of data set [6] is NF-κB p65 in U1 cells. The data set is described as follows: Nuclear phospho-p65-S536 in U1 cells (western blot). To be noted: 1 μM, 30 min, 37°C.
Description: For measuring NF-kB p65 and phosphor-p65 S536, 5 × 10^6 U1 cells were stimulated by 1 μM TLR7/8 agonists D018 (7/8), B-130a (8), GS9620 (7), and DMSO (negative control) for 30 min. Nuclear proteins were extracted by NE-PER Nuclear and Cytoplasmic Extraction Reagents (Pierce) and measured the concentration using BCA protein measure kit (Thermo).
Equal amounts of extracts were loaded on the 10% polyacrylamide gel SDS-PAGE. Then proteins were electro-transferred to nitrocellulose membranes 300 mA for 90 min and incubated with blocking buffer (5% nonfat dry milk and 0.1% Tween 20 in TBS) for 1 h at room temperature. NF-kB p65, phosphorylate p65-s529, and PCNA (as the control of nuclear protein) were separately detected by NF-κB p65 Mouse mAb (CST), Phospho-NF-κB p65 Ser536 Rabbit mAb (CST) and PCNA Rabbit mAb (CST) in blocking buffer overnight at 4°C. After washing 5 times in TBST (1 × TBS + 0.1% Tween), the membranes were incubated with anti-mouse IgG (H + L) HRP (Promega) and anti-rabbit IgG (H + L) HRP (Promega) for 1 h at room temperature. After washing 5 times in TBST, membranes were incubated with ECL detection reagents (Bio-red) and then developed in Bio-red imager.
In data set [7] the test system is PBMCs. The data set is described as follows: Inflammatory cytokine release from PBMCs (Legend-plex). To be noted: PBMC culture supernatant 48 h after stimulation. Type of data set: cell-based, human. Here is the method:
Then, a total of 13 human inflammatory cytokines and chemokines (IL-1β, IFN-α2, IFN-γ, TNF-α, CCL2, IL-6, CXCL8, IL-10, IL-12p70, IL-17A, IL-18, IL-23, and IL-33) were measured in the culture supernatant 48 h after stimulation and compared with two healthy donors. Only 8 out of 13 became detectable and largely fell into the proinflammatory cytokines (IL-1β, IL-6, IL-18, IL-23, and TNF-α), Th1-and Th2-type cytokines (IL-10 and IFN-γ), and type I (IFN-α2) and type II (IFN-γ) interferons (Figures 2B–I).
The supernatants from PBMCs culture were collected and stored at-20°C until analysis. For the Multi-cytokines assay, the Legend-plex Human Inflammation Panel 1 kit (Biolegend) was used according to the manual. Thirteen human inflammatory cytokines/chemokines were measured, including IL-1β, IFN-α2, IFN-γ, TNF-α, MCP-1 (CCL2), IL-6, IL-8 (CXCL8), IL-10, IL-12p70, IL-17A, IL-18, IL-23, and IL-33.

Data set [8] deals with J-LAT CD4 T cell line (latent HIV-1). The data set is described as follows: J-LAT activation by supernatant of agonist-stimulated healthy donor PBMCs (GFP+ cells, FACS). The conditions noted are these: 48 h, highest concentration 16 μM.
Data set [9] deals with HIV-1. Also on record: method as in SenGupta et al., 2021. To be noted: patients treated with oral GS9620, phase 1b, placebo 4.1 weeks; ref SenGupta et al., 2021; cited from earlier work.
Data set [10] has as its system J-LAT CD4 T cell line (latent HIV-1). Description: Direct stimulation of J-LAT cells (GFP-positive cells).

The term EC50 denotes the concentration giving half of the maximal effect. A low value points to a more potent agent. With `COCCNc1nc(N)nc2ccc(Cc3ccc(CN(C)C)cc3)nc12` [199-1], the figures for the 50% effective concentration (EC50) in [1] and in data set [2] were 117 nM and 9.69 nM, respectively.

Regarding `CCCCCc1cc(Cc2ccc(CN(C)C)cc2)c(C)nc1N` [B-130a], the “GFP+ J-LAT cells and soluble TNF-α in MDDC co-culture” value in [3] is “marked increase”. Further, the “HIV-1 RNA copies in the supernatant and TNF-α concentration” value in [4] is reported as “increased”. In addition, the “HIV-1 RNA copies in the supernatant” value in data set [4] is given as “activated detectable levels of HIV-1 RNA copies”. Also, the “p24 production after TLR8 or MyD88 knockdown” value in [5] is given as “essentially abolished the p24 production”. The EC50 in data set [1] is greater than 10000 nM; in data set [2], 55.2 nM. In addition, the “nuclear phos-p65-S536” value in data set [6] is “significant increase”. Moreover, the “release of inflammatory cytokines” value in [7] was “comparable potency but were invariably higher than TLR7-specific GS9620”.

On to `CCCCCc1cc(Cc2ccc(CN3CCCC3)cc2)c(C)nc1N` [B-130b], for which the figures for the EC50 in data set [1] and in [2] were greater than 10000 nM and 67.2 nM, respectively.

Regarding `CCCCNc1nc(N)nc2ccc(Cc3ccc(CN4CCCC4)cc3)nc12` [C008], the EC50 in data set [1] amounted to 101 nM; in data set [2], 17.3 nM.

Take `CCCCNc1nc(N)nc2ccc(Cc3ccc(CN(C)C)cc3OC)nc12` [C142]: in [4], the “HIV-1 RNA copies in the supernatant” value is on record as “activated detectable levels of HIV-1 RNA copies”. Further, the EC50 in data set [1] stood at 20 nM; in [2], 44.1 nM. For the same compound, the “release of inflammatory cytokines” value in data set [7] was “either equivalent (IL-6, IL-10, IL-23, and IFN-γ) or higher (IL-1β, IL-18, and TNF-α) than the commercially available R848”.

For the compound `CCCCNc1nc(N)nc2ccc(C(C)c3ccc(CN(C)C)cc3)nc12` (stereo not shown) [C163], the 50% effective concentration (EC50) in data set [1] was 1650 nM; in data set [2] it was 178 nM.

Consider `CCCCOc1nc(N)c2c(n1)N(Cc1cccc(CN3CCCC3)c1)CC(=O)N2` [GS9620, reference compound], for which the “GFP+ J-LAT cells and soluble TNF-α in MDDC co-culture” value in data set [3] is “no detectable levels”. In addition, the “HIV-1 RNA copies in the supernatant and TNF-α concentration” value in data set [4] is “low detectable levels”. Further, the EC50 is 353 nM in data set [1] and greater than 10000 nM in [2]. The “GFP-positive J-LAT cells, PBMC supernatant” value in data set [8] was “did not show any detectable effect”. The viral rebound time in data set [9] was 5.1 weeks.

On to `CCCCNc1nc(N)nc2ccc(Cl)nc12` [LB06], for which the EC50 was 2600 nM in [1] and 2000 nM in data set [2].

Turning to `CCCN(CCC)C(=O)C1=Cc2ccc(-c3ccc(C(=O)N4CCCC4)cc3)cc2N=C(N)C1` [VTX-2337, reference compound], the EC50 in data set [1] is greater than 10000 nM; in [2], 151 nM. In [7], the “release of inflammatory cytokines” value was “comparable potency but were invariably higher than TLR7-specific GS9620”.

On to `CCCCNc1nc(N)nc2ccc(Cc3ccc(CN4CCOCC4)cc3)nc12` [WA86], for which the EC50 in data set [1] worked out at 118 nM; in [2], 51 nM.

For the compound `CCCCCc1cc2nc(Cc3ccc(CN(C)C)cc3)ccc2nc1N` [WA175], the EC50 in [1] is greater than 10000 nM; in data set [2], 197 nM.

Consider IFN-α, for which the “GFP-positive J-LAT cells, direct stimulation” value in data set [10] was “failed to activate J-LAT cells”.

TNF-α: the “GFP-positive J-LAT cells, direct stimulation” value in data set [10] is reported as “could activate GFP expression”.
